The target of one assay is T1, Adenosine receptor A1 (Homo sapiens, UniProt P30542).
T1 sequence (P30542 whole entry): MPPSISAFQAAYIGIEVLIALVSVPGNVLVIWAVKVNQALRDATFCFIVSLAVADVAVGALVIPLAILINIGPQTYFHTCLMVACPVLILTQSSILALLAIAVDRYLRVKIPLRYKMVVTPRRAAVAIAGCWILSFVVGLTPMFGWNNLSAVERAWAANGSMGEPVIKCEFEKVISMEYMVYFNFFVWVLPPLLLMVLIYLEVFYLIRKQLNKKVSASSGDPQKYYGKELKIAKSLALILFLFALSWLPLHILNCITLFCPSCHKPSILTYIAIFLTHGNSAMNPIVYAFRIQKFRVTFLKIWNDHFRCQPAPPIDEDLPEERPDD

Assay [1] has as its target T2, Alpha-2C adrenergic receptor (Homo sapiens, UniProt P18825).
T2 sequence (P18825 whole entry): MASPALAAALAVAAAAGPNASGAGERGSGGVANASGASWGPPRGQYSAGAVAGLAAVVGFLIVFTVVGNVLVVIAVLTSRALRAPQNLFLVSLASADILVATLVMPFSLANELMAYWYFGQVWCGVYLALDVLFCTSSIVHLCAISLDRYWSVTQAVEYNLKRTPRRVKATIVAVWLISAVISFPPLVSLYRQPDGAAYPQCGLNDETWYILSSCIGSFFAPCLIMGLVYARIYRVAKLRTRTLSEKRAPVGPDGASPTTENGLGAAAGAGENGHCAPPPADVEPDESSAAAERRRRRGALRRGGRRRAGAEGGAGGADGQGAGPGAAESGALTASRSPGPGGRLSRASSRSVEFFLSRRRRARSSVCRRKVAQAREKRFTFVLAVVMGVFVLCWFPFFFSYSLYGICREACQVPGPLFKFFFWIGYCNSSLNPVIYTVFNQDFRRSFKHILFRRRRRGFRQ
It is filed as functional.

For another assay, the target named is T3, B2 bradykinin receptor (Homo sapiens, UniProt P30411).
T3 sequence (P30411 whole entry): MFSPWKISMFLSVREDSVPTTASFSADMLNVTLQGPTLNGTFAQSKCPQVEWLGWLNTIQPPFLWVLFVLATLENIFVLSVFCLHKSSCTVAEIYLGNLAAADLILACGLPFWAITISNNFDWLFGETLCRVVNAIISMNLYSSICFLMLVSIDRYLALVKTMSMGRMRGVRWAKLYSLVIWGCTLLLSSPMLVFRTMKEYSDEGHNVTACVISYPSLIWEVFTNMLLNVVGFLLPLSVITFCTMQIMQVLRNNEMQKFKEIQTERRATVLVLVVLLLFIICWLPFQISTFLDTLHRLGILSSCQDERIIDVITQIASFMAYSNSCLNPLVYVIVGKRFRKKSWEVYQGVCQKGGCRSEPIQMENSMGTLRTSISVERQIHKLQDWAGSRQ

In assay [2] the target is Voltage-dependent L-type calcium channel subunit alpha-1C (Rattus norvegicus, UniProt P22002). It is filed as functional.
Assay [3] concerns the target T4, Cholecystokinin receptor type A (Homo sapiens, UniProt P32238).
T4 sequence (P32238 whole entry): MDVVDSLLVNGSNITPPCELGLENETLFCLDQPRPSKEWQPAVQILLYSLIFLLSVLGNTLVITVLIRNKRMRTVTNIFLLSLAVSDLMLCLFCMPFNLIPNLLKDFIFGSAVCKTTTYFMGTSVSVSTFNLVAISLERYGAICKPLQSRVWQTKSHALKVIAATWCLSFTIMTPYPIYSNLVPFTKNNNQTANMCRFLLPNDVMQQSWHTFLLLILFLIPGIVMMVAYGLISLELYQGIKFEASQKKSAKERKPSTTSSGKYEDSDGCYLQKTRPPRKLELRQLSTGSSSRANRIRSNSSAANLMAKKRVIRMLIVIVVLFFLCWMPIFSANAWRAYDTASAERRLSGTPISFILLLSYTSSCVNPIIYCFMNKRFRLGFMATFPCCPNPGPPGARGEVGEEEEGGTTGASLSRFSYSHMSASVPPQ

Assay [4] deals with Neuronal acetylcholine receptor subunit alpha-4 (Homo sapiens, UniProt P43681).
Sequence of Neuronal acetylcholine receptor subunit alpha-4 (P43681 whole entry): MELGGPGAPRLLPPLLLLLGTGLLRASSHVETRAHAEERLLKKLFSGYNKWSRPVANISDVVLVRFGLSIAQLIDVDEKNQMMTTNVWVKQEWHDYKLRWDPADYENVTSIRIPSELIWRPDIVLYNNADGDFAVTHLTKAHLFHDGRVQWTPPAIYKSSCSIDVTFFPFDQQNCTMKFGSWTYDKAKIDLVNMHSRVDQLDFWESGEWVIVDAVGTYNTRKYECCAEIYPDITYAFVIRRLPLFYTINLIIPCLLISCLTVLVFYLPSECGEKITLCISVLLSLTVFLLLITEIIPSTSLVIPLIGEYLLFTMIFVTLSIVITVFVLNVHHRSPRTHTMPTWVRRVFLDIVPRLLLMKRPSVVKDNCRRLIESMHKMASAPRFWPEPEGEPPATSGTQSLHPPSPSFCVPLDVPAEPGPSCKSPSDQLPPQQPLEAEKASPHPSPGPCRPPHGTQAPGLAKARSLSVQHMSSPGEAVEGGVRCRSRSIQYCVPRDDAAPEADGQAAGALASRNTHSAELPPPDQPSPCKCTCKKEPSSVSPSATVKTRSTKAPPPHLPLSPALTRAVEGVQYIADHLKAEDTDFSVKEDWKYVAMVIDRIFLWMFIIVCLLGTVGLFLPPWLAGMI
Assay [5] addresses T5, Gamma-aminobutyric acid receptor subunit alpha-1 (Rattus norvegicus, UniProt P62813).
Assay [6] deals with T5, Gamma-aminobutyric acid receptor subunit alpha-1. It is filed as functional.
The target of assay [7] is 5-hydroxytryptamine receptor 2B (Homo sapiens, UniProt P41595). It is filed as functional, cell-based.
Sequence of 5-hydroxytryptamine receptor 2B (P41595 whole entry): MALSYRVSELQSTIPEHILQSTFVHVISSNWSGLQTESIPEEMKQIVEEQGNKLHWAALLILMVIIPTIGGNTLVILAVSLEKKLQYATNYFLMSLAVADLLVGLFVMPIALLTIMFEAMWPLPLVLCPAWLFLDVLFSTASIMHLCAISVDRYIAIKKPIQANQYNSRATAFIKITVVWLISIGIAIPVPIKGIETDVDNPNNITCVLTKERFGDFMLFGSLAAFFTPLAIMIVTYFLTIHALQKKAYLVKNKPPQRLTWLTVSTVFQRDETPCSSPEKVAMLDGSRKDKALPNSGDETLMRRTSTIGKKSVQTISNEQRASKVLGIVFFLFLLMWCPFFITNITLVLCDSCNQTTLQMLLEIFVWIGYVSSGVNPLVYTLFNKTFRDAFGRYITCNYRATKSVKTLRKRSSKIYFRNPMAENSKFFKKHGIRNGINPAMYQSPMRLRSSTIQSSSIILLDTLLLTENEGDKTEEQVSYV
Assay [8] concerns the target T6, 5-hydroxytryptamine receptor 2C (Homo sapiens, UniProt P28335).
T6 sequence (P28335 whole entry): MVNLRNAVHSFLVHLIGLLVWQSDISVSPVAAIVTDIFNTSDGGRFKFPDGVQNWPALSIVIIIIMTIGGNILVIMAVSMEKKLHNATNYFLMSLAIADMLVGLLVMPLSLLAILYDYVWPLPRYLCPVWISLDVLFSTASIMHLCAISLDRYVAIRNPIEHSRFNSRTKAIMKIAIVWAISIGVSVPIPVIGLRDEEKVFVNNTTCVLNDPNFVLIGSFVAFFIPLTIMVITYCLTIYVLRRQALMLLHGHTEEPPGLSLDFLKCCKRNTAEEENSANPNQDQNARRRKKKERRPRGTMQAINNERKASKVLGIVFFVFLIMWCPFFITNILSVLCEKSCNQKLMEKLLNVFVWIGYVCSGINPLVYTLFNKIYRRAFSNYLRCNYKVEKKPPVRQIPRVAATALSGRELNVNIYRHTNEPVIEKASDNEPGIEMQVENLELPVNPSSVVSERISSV

The next assay addresses Melanocortin receptor 3 (Homo sapiens, UniProt P41968).
Assay [9] has as its target Sodium-dependent dopamine transporter (Homo sapiens, UniProt Q01959).
Assay [10] addresses cGMP-inhibited 3',5'-cyclic phosphodiesterase 3A (Homo sapiens, UniProt Q14432). It is filed as functional.
The next assay addresses Histamine H3 receptor (Homo sapiens, UniProt Q9Y5N1).
The next assay deals with Cannabinoid receptor 1 (Homo sapiens, UniProt P21554). It is filed as functional, cell-based.
Sequence of Cannabinoid receptor 1 (P21554 whole entry): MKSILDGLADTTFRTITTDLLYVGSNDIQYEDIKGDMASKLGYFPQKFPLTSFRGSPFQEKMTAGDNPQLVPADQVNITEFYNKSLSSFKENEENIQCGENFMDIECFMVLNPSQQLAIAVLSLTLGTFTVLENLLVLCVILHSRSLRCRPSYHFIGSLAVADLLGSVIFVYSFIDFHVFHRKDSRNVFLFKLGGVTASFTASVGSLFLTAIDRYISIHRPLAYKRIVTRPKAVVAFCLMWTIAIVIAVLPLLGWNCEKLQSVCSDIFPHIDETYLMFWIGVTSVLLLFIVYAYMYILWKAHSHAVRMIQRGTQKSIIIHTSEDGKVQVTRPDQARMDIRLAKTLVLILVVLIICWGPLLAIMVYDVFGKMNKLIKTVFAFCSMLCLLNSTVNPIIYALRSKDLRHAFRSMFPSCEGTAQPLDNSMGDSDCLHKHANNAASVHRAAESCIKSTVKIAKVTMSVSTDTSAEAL

The structures appear in SMILES notation.

One may read the AC50 as the midpoint of the concentration-response curve, whichever way the signal moves.
Further: assay procedure not described here.

T5 sequence (P62813 whole entry): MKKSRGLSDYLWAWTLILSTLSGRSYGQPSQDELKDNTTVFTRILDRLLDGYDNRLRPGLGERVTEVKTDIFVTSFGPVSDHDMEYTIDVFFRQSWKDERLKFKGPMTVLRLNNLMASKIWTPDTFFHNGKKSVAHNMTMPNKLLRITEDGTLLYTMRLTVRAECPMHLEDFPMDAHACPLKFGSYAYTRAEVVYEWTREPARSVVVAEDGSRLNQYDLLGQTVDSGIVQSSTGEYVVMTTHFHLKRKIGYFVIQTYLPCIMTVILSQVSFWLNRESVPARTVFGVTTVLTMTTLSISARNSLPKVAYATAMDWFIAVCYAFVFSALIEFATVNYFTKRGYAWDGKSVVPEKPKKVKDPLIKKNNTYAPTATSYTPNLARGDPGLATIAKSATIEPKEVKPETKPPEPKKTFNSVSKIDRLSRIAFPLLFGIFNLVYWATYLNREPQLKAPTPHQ
Sequence of Histamine H3 receptor (Q9Y5N1 whole entry): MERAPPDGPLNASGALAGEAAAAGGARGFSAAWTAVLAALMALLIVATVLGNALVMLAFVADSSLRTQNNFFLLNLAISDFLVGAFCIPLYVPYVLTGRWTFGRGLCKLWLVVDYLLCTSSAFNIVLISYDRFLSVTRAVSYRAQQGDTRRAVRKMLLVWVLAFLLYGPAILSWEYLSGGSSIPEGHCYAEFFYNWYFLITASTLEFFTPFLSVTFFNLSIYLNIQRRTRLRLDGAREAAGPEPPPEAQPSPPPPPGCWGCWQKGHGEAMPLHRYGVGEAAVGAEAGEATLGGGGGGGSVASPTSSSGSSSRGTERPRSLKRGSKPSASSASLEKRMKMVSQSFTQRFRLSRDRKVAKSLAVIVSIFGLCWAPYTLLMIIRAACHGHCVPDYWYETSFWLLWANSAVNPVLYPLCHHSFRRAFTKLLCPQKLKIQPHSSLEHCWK
Sequence of Melanocortin receptor 3 (P41968 whole entry): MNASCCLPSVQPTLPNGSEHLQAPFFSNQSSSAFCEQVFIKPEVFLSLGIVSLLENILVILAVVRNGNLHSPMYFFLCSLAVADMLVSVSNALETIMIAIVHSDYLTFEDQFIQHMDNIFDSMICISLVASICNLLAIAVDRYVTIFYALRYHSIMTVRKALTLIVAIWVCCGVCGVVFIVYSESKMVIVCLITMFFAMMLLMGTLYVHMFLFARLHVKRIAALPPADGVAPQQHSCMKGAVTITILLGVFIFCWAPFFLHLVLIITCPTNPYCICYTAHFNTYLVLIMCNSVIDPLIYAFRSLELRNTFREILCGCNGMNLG
Sequence of Sodium-dependent dopamine transporter (Q01959 whole entry): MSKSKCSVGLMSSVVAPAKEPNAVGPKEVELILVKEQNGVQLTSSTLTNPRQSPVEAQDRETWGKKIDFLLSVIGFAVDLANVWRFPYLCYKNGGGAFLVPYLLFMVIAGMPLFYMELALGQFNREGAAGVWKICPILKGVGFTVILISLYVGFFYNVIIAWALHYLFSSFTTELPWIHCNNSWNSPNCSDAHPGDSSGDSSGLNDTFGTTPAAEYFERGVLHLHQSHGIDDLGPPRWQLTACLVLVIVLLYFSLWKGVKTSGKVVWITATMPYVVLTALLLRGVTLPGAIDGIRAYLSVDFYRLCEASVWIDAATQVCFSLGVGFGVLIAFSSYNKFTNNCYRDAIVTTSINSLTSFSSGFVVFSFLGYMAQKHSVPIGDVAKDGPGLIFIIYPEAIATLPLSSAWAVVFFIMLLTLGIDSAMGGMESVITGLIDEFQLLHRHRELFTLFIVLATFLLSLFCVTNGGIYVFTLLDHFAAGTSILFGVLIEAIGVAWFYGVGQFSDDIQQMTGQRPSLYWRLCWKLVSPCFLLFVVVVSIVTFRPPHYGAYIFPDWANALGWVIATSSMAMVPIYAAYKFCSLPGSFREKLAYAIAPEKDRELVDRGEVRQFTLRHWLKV
Sequence of cGMP-inhibited 3',5'-cyclic phosphodiesterase 3A (Q14432 whole entry): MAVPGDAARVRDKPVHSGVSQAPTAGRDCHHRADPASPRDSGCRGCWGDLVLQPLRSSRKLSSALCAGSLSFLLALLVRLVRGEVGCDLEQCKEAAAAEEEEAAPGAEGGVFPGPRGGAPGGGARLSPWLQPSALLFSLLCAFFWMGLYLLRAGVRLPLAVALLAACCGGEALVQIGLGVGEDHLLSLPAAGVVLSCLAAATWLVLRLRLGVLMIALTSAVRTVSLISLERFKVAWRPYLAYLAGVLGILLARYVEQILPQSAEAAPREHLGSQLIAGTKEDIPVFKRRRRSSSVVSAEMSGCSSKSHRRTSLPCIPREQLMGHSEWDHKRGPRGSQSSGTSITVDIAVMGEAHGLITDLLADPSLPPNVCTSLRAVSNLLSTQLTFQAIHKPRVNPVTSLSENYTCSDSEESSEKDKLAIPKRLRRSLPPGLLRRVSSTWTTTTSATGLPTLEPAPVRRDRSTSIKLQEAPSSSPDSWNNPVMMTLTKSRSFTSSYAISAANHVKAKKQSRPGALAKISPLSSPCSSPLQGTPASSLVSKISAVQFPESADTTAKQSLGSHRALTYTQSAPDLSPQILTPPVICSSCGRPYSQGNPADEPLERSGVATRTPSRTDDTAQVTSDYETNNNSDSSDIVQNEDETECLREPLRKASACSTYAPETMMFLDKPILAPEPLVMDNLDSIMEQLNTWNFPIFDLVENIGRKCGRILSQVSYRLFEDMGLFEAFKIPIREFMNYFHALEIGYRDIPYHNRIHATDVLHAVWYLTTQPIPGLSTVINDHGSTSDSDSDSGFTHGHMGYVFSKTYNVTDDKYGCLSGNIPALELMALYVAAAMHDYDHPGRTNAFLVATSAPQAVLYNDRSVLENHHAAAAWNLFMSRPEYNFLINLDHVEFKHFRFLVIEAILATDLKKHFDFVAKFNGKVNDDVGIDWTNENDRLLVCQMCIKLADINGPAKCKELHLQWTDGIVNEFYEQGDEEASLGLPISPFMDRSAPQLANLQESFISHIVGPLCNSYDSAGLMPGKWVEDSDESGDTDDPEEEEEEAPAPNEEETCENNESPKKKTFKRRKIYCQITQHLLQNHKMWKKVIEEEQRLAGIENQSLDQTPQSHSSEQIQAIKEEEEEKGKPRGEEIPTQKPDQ

With `C[C@@H](O)[C@H]1C(=O)N2C(C(=O)O)=C(S[C@@H]3CN[C@H](C(=O)Nc4cccc(C(=O)O)c4)C3)[C@H](C)[C@H]12`, on Adenosine receptor A1, the AC50 is > 30 µM.

On to `CC(=O)OC1CN2CCC1CC2` (stereo not given) [ACECLIDINE], for which, at Adenosine receptor A1, the AC50 is > 30 µM.

As for `CC1=C(/C=C/C(C)=C\C=C\C(C)=C\C(=O)O)C(C)(C)CCC1` [ALITRETINOIN], on Adenosine receptor A1, the AC50 was > 30 µM.

Take `N=C(N)NC(=O)c1nc(Cl)c(N)nc1N` [AMILORIDE]: the AC50 (on Adenosine receptor A1; in [1]; on B2 bradykinin receptor; in [2]; in assay [3]; in assay [4]) was > 30 µM in each case. The concentration at half-maximal activity (AC50) (in assay [5]; in assay [6]; in [7]; in assay [8]; at Melanocortin receptor 3; in assay [9]) was > 30 µM throughout. Besides, the half-maximal activity concentration (AC50) (in assay [10]; on Histamine H3 receptor) was > 30 µM throughout.

Consider `CC(=O)Nc1ccc(/C=N/NC(N)=S)cc1` [AMITHIOZONE], for which the AC50 on Adenosine receptor A1 is > 30 µM.

With `CC1(C)S[C@@H]2[C@H](NC(=O)[C@H](NC(=O)c3cnc4cccnc4c3O)c3ccccc3)C(=O)N2[C@H]1C(=O)O` [APALCILLIN], the half-maximal activity concentration (AC50) on Adenosine receptor A1 was > 30 µM.

Turning to `O=C(OOC(=O)c1ccccc1)c1ccccc1` [BENZOYL PEROXIDE], at Adenosine receptor A1, the concentration at half-maximal activity (AC50) is > 30 µM.

`CC(C)(C)NCC(O)COc1ccccc1C#N` (stereo not given) [BUNITROLOL]: the half-maximal activity concentration (AC50) (on Adenosine receptor A1; in assay [1]; at Cannabinoid receptor 1; in assay [5]; in [6]; in assay [7]) was > 30 µM in each case. The AC50 in assay [8] and in [10] was > 30 µM throughout.

In the case of `CC1(C)C[C@@H]1C(=O)N/C(=C\CCCCSC[C@H](N)C(=O)O)C(=O)O` [CILASTATIN], on Adenosine receptor A1, the AC50 was > 30 µM.

`COc1c(OCCCN2CCOCC2)ccc2c1N=C(NC(=O)c1cnc(N)nc1)N1CCN=C21` [COPANLISIB]: the AC50 on Adenosine receptor A1 is > 30 µM.

In the case of `CC(C)(Oc1ccc(Cl)cc1)C(=O)OCCOC(=O)c1cccnc1` [ETOFIBRATE], the AC50 (in [1]; at B2 bradykinin receptor; in assay [2]; in [3]; in assay [4]; on Cannabinoid receptor 1) was > 30 µM in each case. Moreover, the AC50 (in assay [5]; in [6]; in assay [7]; in assay [8]; on Melanocortin receptor 3; in assay [9]) was > 30 µM in each case. Further, the AC50 (in assay [10]; on Histamine H3 receptor) was > 30 µM each time.

For the molecule `CC1=C(/C=C/C(C)=C/C=C/C(C)=C\C(=O)O)C(C)(C)CCC1` [ISOTRETINOIN], at Adenosine receptor A1, the AC50 is > 30 µM.

As to `CSCC[C@H](N)C(=O)O` [METHIONINE], the half-maximal activity concentration (AC50) on Adenosine receptor A1 is > 30 µM.

Turning to `COCC(=O)O[C@]1(CCN(C)CCCc2nc3ccccc3[nH]2)CCc2cc(F)ccc2[C@@H]1C(C)C` [MIBEFRADIL], the AC50 at Adenosine receptor A1 was > 30 µM.

On to `COc1ccc(C(=O)c2ccccc2)c(O)c1` [OXYBENZONE], for which the AC50 (at Adenosine receptor A1; in assay [1]; on Cannabinoid receptor 1; in [5]; in assay [6]; in assay [7]) was > 30 µM throughout. The AC50 in assay [8] and in [10] was > 30 µM in each case.

For the molecule `O=C1Nc2ccccc2C1(c1ccc(O)cc1)c1ccc(O)cc1` [OXYPHENISATINE], on Adenosine receptor A1, the concentration at half-maximal activity (AC50) was > 30 µM.

In the case of `OC(CN1CCCCC1)c1cc(-c2ccccc2)on1` (stereo not given) [PERISOXAL], the AC50 on Adenosine receptor A1 was > 30 µM.

For the molecule `C[C@]12C=CC(=O)C=C1CC[C@@H]1[C@@H]2[C@@H](O)C[C@@]2(C)[C@H]1CC[C@]2(O)C(=O)CO` [PREDNISOLONE], the half-maximal activity concentration (AC50) in assay [1] is > 10 µM; at B2 bradykinin receptor, > 30 µM; in assay [2], > 10 µM; in assay [3] it was > 30 µM; in assay [4], > 10 µM; at Cannabinoid receptor 1, > 30 µM. In addition, the AC50 was > 10 µM in [5]; > 10 µM in [6]; > 10 µM in assay [7]; > 30 µM in assay [8]; > 30 µM on Melanocortin receptor 3; > 30 µM in assay [9]. In addition, the AC50 in assay [10] is > 30 µM; on Histamine H3 receptor, > 10 µM.

Regarding `CN(C)[C@@H]1C(O)=C(C(=O)NCN2CCCC2)C(=O)[C@@]2(O)C(O)=C3C(=O)c4c(O)cccc4[C@@](C)(O)[C@H]3C[C@@H]12` [ROLITETRACYCLINE], the AC50 in assay [1] is > 10 µM; on B2 bradykinin receptor, > 10 µM; in assay [2], > 10 µM; in assay [3] it was > 10 µM; in assay [4], > 10 µM; on Cannabinoid receptor 1, > 30 µM. For the same molecule, the AC50 was > 10 µM in [5]; > 10 µM in [6]; > 10 µM in assay [7]; > 30 µM in assay [8]; > 10 µM at Melanocortin receptor 3; > 10 µM in assay [9]. In addition, the AC50 in assay [10] is > 30 µM; at Histamine H3 receptor, > 10 µM.

As for `CC1(C)O[C@@H]2C[C@H]3[C@@H]4CCC5=CC(=O)C=C[C@]5(C)[C@@]4(F)[C@@H](O)C[C@]3(C)[C@]2(C(=O)CO)O1` [TRIAMCINOLONE ACETONIDE], the AC50 (in [1]; on B2 bradykinin receptor; in assay [2]; in [3]; in [4]; on Cannabinoid receptor 1) was > 30 µM throughout. Further, the concentration at half-maximal activity (AC50) (in assay [5]; in [6]; in assay [7]; in [8]; at Melanocortin receptor 3; in assay [9]) was > 30 µM each time. The concentration at half-maximal activity (AC50) (in [10]; at Histamine H3 receptor) was > 30 µM each time.

`CC(=O)O[C@]1(C(C)=O)CC[C@H]2[C@@H]3CCC4=CC(=O)CCC4=C3[C@@H](c3ccc(N(C)C)cc3)C[C@@]21C` [ULIPRISTAL ACETATE]: the AC50 at Adenosine receptor A1 is > 30 µM.

These data come from ChEMBL document CHEMBL5291721, “A preclinical secondary pharmacology resource illuminates target-adverse drug reaction associations of marketed drugs” (Nat Commun, 2023).
